The supplement of paper PMC11061612

Experiments:
Assay in all cases: Bliss excess, mean over the matrix (fraction); higher = more synergy
[1] = system: 647-V (Bladder Carcinoma)
Procedure, shortened: (§1)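 Bliss excess equals the observed combination effect minus the expected value EA + EB − EA·EB, where EA and EB are the effects of each agent alone. Combination Emax is the second-highest inhibition within the matrix. Inhibition was scaled from CellTiter-Glo 2.0 luminescence, with 0 set by vehicle wells and 1 by blank wells, after 72 hours of two-drug dosing of cells plated in 1536-well plates.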

A172 (Glioblastoma) = system: A172 (Glioblastoma)
Procedure, shortened: as §1

[2] = system: CAL-39 (Other Solid Carcinomas)
Procedure, shortened: as §1

[3] = system: D-283MED (Other Solid Carcinomas)
Procedure, shortened: as §1

[4] = system: DOK (Oral Cavity Carcinoma)
Procedure, shortened: as §1

H4 (Low Grade Glioma) = system: H4 (Low Grade Glioma)
Procedure, shortened: as §1

[5] = system: HCC1143 (Breast Carcinoma)
Procedure, shortened: as §1

HCC38 (Breast Carcinoma) = system: HCC38 (Breast Carcinoma)
Procedure, shortened: as §1

[6] = system: HCT-116 (Colorectal Carcinoma)
Procedure, shortened: as §1

[7] = system: HLE (Hepatocellular Carcinoma)
Procedure, shortened: as §1

[8] = system: HOP-92 (Non-Small Cell Lung Carcinoma)
Procedure, shortened: as §1

HuO9 (Osteosarcoma) = system: HuO9 (Osteosarcoma)
Procedure, shortened: as §1

MCF7 (Breast Carcinoma) = system: MCF7 (Breast Carcinoma)
Procedure, shortened: as §1

[9] = system: MES-SA (Other Solid Carcinomas)
Procedure, shortened: as §1

MSTO-211H (Mesothelioma) = system: MSTO-211H (Mesothelioma)
Procedure, shortened: as §1

[10] = system: SKN-3 (Head and Neck Carcinoma)
Procedure, shortened: as §1

[11] = system: SNU-61 (Colorectal Carcinoma)
Procedure, shortened: as §1

[12] = system: SW48 (Colorectal Carcinoma)
Procedure, shortened: as §1

[13] = system: U-118-MG (Low Grade Glioma)
Procedure, shortened: as §1

[14] = system: WSU-DLCL2 (B-Cell Non-Hodgkin's Lymphoma)
Procedure, shortened: as §1

SMILES	Bliss excess [1]	Bliss excess (A172 (Glioblastoma))	Bliss excess [2]	Bliss excess [3]	Bliss excess [4]	Bliss excess (H4 (Low Grade Glioma))	Bliss excess [5]	Bliss excess (HCC38 (Breast Carcinoma))	Bliss excess [6]	Bliss excess [7]	Bliss excess [8]	Bliss excess (HuO9 (Osteosarcoma))	Bliss excess (MCF7 (Breast Carcinoma))	Bliss excess [9]	Bliss excess (MSTO-211H (Mesothelioma))	Bliss excess [10]	Bliss excess [11]	Bliss excess [12]	Bliss excess [13]	Bliss excess [14]
CCN(CCO)CCCOc1ccc2c(Nc3cc(CC(=O)Nc4cccc(F)c4)[nH]n3)ncnc2c1 [AZD2811] + O=C(c1cc(Cc2n[nH]c(=O)c3ccccc23)ccc1F)N1CCN(C(=O)C2CC2)CC1 [Olaparib] (first compound max 1 µM, 7x7, partner max 10 µM)	0.0433	0.044	0.0017	-0.0234	-0.0086	-0.0046	0.015	-0.003	-0.0109	0.004	-0.0048	0.0215	-0.0023	0.0754	0.0178	-0.0236	-0.0184	0.0145	0.0186	0.0463
Cc1c2c(nn1C)CSCc1cc(n(C)n1)CSc1cc(c3ccccc3c1)OCCCc1c(C(=O)O)n(C)c3c-2c(Cl)ccc13 [AZD5991] + C1CN(CCC1(C(=O)N[C@@H](CCO)C2=CC=C(C=C2)Cl)N)C3=NC=NC4=C3C=CN4 [Capivasertib] (first compound max 1 µM, 7x7, partner max 3 µM)	-0.0059	-0.0001	-0.0203	0.0094	-0.0113	0.0378	0.0114	0.0062	-0.0275	0.0341	-0.0294	0.0085	0.0778	-0.0144	-0.0066	-0.0285	-0.0174	-0.034	-0.0205	0.013
CC1(C)CCC(CN2CCN(c3ccc(C(=O)NS(=O)(=O)c4ccc(NCC5CCOCC5)c([N+](=O)[O-])c4)c(Oc4cnc5[nH]ccc5c4)c3)CC2)=C(c2ccc(Cl)cc2)C1 [Venetoclax] + Cn1cnc2c(F)c(Nc3ccc(Br)cc3Cl)c(C(=O)NOCCO)cc21 [Selumetinib] (first compound max 1 µM, 7x7, partner max 3 µM)	-0.0064	-0.0176	0.0138	0.009	-0.0258	0.006	-0.0093	-0.0322	-0.0255	-0.0267	-0.0338	-0.0173	-0.058	-0.0129	-0.0393	0.019	0.0136	0.0113	-0.0336	0.0196
Cc1nc(Nc2ncc(C(=O)Nc3c(C)cccc3Cl)s2)cc(N2CCN(CCO)CC2)n1 [Dasatinib] + CC(=O)Nc1cccc(-n2c(=O)n(C3CC3)c(=O)c3c(Nc4ccc(I)cc4F)n(C)c(=O)c(C)c32)c1 [Trametinib] (first compound max 2 µM, 7x7, partner max 1 µM)	-0.002	-0.0823	0.0171	-0.0475	0.0288	-0.0488	0.0293	-0.0277	0.0991	0.0283	0.113	0.0175	-0.0601	-0.0311	-0.001	0.004	0.0295	0.225	-0.0736	0.101
Cc1c2c(nn1C)CSCc1cc(n(C)n1)CSc1cc(c3ccccc3c1)OCCCc1c(C(=O)O)n(C)c3c-2c(Cl)ccc13 [AZD5991] + Cc1cc2ncnn2cc1Nc1ncc2c(n1)n(C1CCOCC1)c(=O)n2C [AZD7648] (first compound max 1 µM, 7x7, partner max 10 µM)	0.0281	-0.0426	-0.0466	-0.0158	0.0115	0.0222	0.0124	-0.0418	0.013	-0.0253	-0.0332	-0.018	0.0011	0.0111	-0.025	-0.032	-0.0446	-0.036	-0.0098	-0.0422
Cn1cnc2c(F)c(Nc3ccc(Br)cc3Cl)c(C(=O)NOCCO)cc21 [Selumetinib] + CC(C)n1c(=O)n(C)c2cnc3cc(F)c(-c4ccc(OCCCN5CCCCC5)nc4)cc3c21 [AZD1390] (first compound max 10 µM, 7x7, partner max 0.3 µM)	-0.0481	-0.0389	0.0025	-0.0123	0.021	-0.0503	0.013	-0.0306	-0.0129	-0.0325	-0.0112	0.0143	-0.0452	-0.0335	-0.0367	-0.0318	0.0043	-0.0561	-0.0587	-0.003
Cc1cc2ncnn2cc1Nc1ncc2c(n1)n(C1CCOCC1)c(=O)n2C [AZD7648] + CCN(CCO)CCCOc1ccc2c(Nc3cc(CC(=O)Nc4cccc(F)c4)[nH]n3)ncnc2c1 [AZD2811] (first compound max 10 µM, 7x7, partner max 1 µM)	0.0618	0.0537	-0.0393	0.0609	0.0123	0.006	-0.003	-0.0383	0.0304	0.0271	-0.0038	0.051	-0.0135	0.0834	0.0509	-0.0037	-0.0383	-0.073	0.0172	0.127
CN(C)CCCOc1ccc(-c2ccc3ncc4c(c3c2)n(C2CCOCC2)c(=O)n4C)cn1 [AZD0156] + CCN(CCO)CCCOc1ccc2c(Nc3cc(CC(=O)Nc4cccc(F)c4)[nH]n3)ncnc2c1 [AZD2811] (first compound max 1 µM, 7x7, partner max 1 µM)	0.0365	0.0239	0.0177	0.02	-0.0527	-0.0077	0.0372	-0.0451	0.0233	0.0189	0.0242	-0.009	-0.0114	0.0836	-0.0098	-0.0239	-0.0339	-0.0164	0.0017	0.0362
NC1(C(=O)N[C@@H](CCO)c2ccc(Cl)cc2)CCN(c2ncnc3[nH]ccc23)CC1 [Capivasertib] + CC(=O)c1c(C)c2cnc(Nc3ccc(N4CCNCC4)cn3)nc2n(C2CCCC2)c1=O [Palbociclib] (first compound max 10 µM, 7x7, partner max 10 µM)	0.0129	-0.0183	0.0167	-0.0227	0.016	0.0014	0.0317	-0.023	0.01	-0.002	0.0322	-0.0311	0.049	-0.0017	-0.0547	-0.0502	-0.0289	-0.0217	-0.0154	0.0205
CN(CCO)CC[C@H](CSc1ccccc1)Nc1ccc(S(=O)(=O)NC(=O)c2ccc(N3CCC([C@@H](O)c4ccccc4-c4ccc(Cl)cc4)CC3)cc2)cc1S(=O)(=O)C(F)(F)F [AZD4320] + C1CN(CCC1(C(=O)N[C@@H](CCO)C2=CC=C(C=C2)Cl)N)C3=NC=NC4=C3C=CN4 [Capivasertib] (first compound max 1 µM, 7x7, partner max 3 µM)	0.0056	-0.0588	-0.0296	0.0139	-0.0554	-0.0397	-0.0314	0.0057	-0.0366	-0.126	-0.038	0.0355	-0.0383	-0.0088	-0.0162	-0.0375	-0.038	0.0148	-0.0546	0.0691
Cc1c2c(nn1C)CSCc1cc(n(C)n1)CSc1cc(c3ccccc3c1)OCCCc1c(C(=O)O)n(C)c3c-2c(Cl)ccc13 [AZD5991] + Cn1cnc2c(F)c(Nc3ccc(Br)cc3Cl)c(C(=O)NOCCO)cc21 [Selumetinib] (first compound max 1 µM, 7x7, partner max 3 µM)	0.0749	0.0179	0.02	-0.0265	0.0495	-0.0265	0.0552	-0.0386	-0.0049	-0.0459	-0.0332	-0.0386	-0.0435	-0.0247	-0.006	0.0324	-0.0079	0.0102	-0.0054	-0.0123
COc1cccc2c1C(=O)c1c(O)c3c(c(O)c1C2=O)C[C@@](O)(C(=O)CO)C[C@@H]3O[C@H]1C[C@H](N)[C@H](O)[C@H](C)O1 [Doxorubicin] + Cc1cc2ncnn2cc1Nc1ncc2c(n1)n(C1CCOCC1)c(=O)n2C [AZD7648] (first compound max 1 µM, 7x7, partner max 10 µM)	0.107	0.0789	0.0233	0.0461	0.0485	0.0066	0.0202	0.0206	0.0556	0.0309	0.0271	0.0731	0.058	0.0696	0.115	0.0045	-0.0124	0.0535	0.0909	0.101
